# Measured values reported in publication PMC6030096, “Synergy of Physico-chemical and Biological Experiments for Developing a Cyclooxygenase-2 Inhibitor” (Scientific Reports, 2018).
# Molecular target: T1, COX-1 (Ovis aries, UniProt P05979)
# T1 construct: purchased Cayman Chemical Co. 560131
# T1 sequence (P05979 25-600): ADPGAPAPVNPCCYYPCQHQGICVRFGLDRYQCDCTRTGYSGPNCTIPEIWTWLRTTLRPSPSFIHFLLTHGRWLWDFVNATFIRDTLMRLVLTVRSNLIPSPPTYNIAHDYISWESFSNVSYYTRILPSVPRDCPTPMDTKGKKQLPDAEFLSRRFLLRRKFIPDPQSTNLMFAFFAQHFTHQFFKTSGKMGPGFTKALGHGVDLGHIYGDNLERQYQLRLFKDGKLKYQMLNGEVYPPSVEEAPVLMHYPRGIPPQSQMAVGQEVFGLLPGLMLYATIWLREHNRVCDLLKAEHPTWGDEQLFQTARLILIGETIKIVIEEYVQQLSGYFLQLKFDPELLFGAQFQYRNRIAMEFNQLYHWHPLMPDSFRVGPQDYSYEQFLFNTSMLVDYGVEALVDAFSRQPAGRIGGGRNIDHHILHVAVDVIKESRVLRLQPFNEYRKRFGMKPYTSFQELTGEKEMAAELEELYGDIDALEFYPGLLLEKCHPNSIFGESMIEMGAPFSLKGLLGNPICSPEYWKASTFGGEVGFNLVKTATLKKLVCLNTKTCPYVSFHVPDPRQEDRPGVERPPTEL
# Test: COX-1 enzyme immunoassay (Cayman inhibitor screening kit)
# Assay type: biochemical
# Conditions: not given
# Method: (§1) Principally, the catalytic activity of COX-1/2 is slowed down in the presence of its inhibitor and quantitatively, it is inversely proportional to the amount of prostaglandin produced in the presence of inhibitor.
# (§2) The enzyme inhibition screening assay kits for COX-1/2 and 5-LOX with item no. […] The 100% initial activity tubes for the two enzymes contained 10 µL heme and 10 µL of the enzyme in 160 µL reaction buffer. Then 10 µL inhibitor (compound of above mentioned concentrations) was added to the inhibitor tubes for the two enzymes and 10 µL of vehicle (DMSO) was added to 100% initial activity and background tubes. All the tubes were incubated for 10 min at 37 °C and the reaction was started by adding 10 µL arachidonic acid to all the reaction tubes. After incubation of the reaction vials for 2 min at 37 °C, the enzyme catalysis was stopped by adding 30 µL saturated stannous chloride solution to each test tube and solutions were kept at 0–4 °C. For EIA (enzyme immunoassay) procedure: the EIA buffers and assay specific reagents were prepared as written in the manual. In the COX dilutions, two test tubes labelled as BC1 and BC2 were taken to prepare background samples. Each tube contained 990 µL of EIA buffer and 10 µL of background COX-1 for BC1 and 10 µL of background COX-2 for BC2. The samples for 100% initial activity were diluted in three vials labelled IA1, IA2 and IA3 for each enzyme. IA1 contained 990 µL EIA buffer and 10 µL enzyme, IA2 has 950 µL buffer and 50 µL solution of IA1 (1:2000 dilution of original sample) and IA3 carried 500 µL of buffer and 500 µL of IA2 solution (1:4000 dilution of original sample). Each solution was thoroughly mixed. Solutions of IA2 and IA3 were used for the assaying. […] C2 contained 950 µL buffer and 50 µL solution of C1 (1:2000 dilution of original sample) and vial C3 was charged with 500 µL buffer and 500 µL solution from C2 (1: 4000 dilution of original sample). Only C2 and C3 were run in the assay. After all the reaction dilutions, these were then subjected to 96 wells plate. The wells were divided as: 2 blank wells, 2 NSB wells (non-specific binding), 3 B0 wells (maximum binding), one TA well (total activity), 16 wells for standards (S1–S8 in repeat), 2 BC1 and 2 BC2 wells. Compounds (inhibitors) were put in all the other wells. The sequence for the addition of reagents onto the plate was as per the protocol of the assay kit. […] For developing the plate; it was emptied and washed with wash buffer 5 times followed by the addition of 200 µL Ellman’s reagent to each well. 5 µL tracer was added to the TA well. Then the plate was covered and left for 60 mins for development in dark. After the respective time period the cover was removed and the plate was read at 420 nm. %B/Bo (i.e. % sample or maximum bound) value for standards S1-S8 and each sample was determined from the absorbance values obtained according to the calculation given in the protocol. The amount of prostaglandins formed during the enzymatic reaction was calculated from the values of %B/Bo for all the compounds at all concentrations with the help of the standard curve (plotted between %B/Bo of standards and raw data given in the protocol). Then the prostaglandin formed at each concentration of all the compounds and percentage inhibition values were calculated. The graph between percent inhibition of the enzyme and corresponding concentration of the compound provided IC50 values for the compounds.
row,SMILES,IC50 [nM]
1,CN1C(=O)C(=Cc2cn(C[C@@H](O)Cn3c4ccccc4c(=O)c4ccccc43)c3ccccc23)C(=O)N(C)C1=O [(R)-3b],1000 ± 200
2,CN1C(=O)C(=Cc2cn(C[C@H](O)Cn3c4ccccc4c(=O)c4ccccc43)c3ccccc23)C(=O)N(C)C1=O [(S)-3b],700 ± 50
3,O=C1NC(=O)C(=Cc2cn(CCCCn3c4ccccc4c(=O)c4ccccc43)c3ccccc23)C(=O)N1 [Compound 4b],> 10000

# Same assay, conditions: enzyme immunoassay, average of three experiments; read-out: IC50 COX-1
row,SMILES,IC50 [nM]
1,O=C1C(=Cc2cn(C[C@H](O)Cn3c4ccccc4c(=O)c4ccccc43)c3ccccc23)c2ccccc2N1c1c(Cl)cccc1Cl [(S)-3d],60000 ± 4500
2,O=C1Nc2ccccc2C1=Cc1cn(C[C@@H](O)Cn2c3ccccc3c(=O)c3ccccc32)c2ccccc12 [(R)-3c],8000 ± 380
3,O=C1C(=Cc2cn(C[C@@H](O)Cn3c4ccccc4c(=O)c4ccccc43)c3ccccc23)c2ccccc2N1c1c(Cl)cccc1Cl [(R)-3d],> 10000
4,CC1=NN(c2cccc(Cl)c2)C(=O)C1=Cc1cn(CCCn2c3ccccc3c(=O)c3ccccc32)c2ccccc12 [Compound 4e],> 10000
5,O=C1Nc2ccccc2C1=Cc1cn(CCCCn2c3ccccc3c(=O)c3ccccc32)c2ccccc12 [Compound 4d],4000 ± 180

# Molecular target: T2, 5-LOX (Soybean lipoxygenase) (Glycine max, UniProt P08170)
# T2 construct: purchased Cayman Chemical Co. 760700
# T2 sequence (P08170 1-839): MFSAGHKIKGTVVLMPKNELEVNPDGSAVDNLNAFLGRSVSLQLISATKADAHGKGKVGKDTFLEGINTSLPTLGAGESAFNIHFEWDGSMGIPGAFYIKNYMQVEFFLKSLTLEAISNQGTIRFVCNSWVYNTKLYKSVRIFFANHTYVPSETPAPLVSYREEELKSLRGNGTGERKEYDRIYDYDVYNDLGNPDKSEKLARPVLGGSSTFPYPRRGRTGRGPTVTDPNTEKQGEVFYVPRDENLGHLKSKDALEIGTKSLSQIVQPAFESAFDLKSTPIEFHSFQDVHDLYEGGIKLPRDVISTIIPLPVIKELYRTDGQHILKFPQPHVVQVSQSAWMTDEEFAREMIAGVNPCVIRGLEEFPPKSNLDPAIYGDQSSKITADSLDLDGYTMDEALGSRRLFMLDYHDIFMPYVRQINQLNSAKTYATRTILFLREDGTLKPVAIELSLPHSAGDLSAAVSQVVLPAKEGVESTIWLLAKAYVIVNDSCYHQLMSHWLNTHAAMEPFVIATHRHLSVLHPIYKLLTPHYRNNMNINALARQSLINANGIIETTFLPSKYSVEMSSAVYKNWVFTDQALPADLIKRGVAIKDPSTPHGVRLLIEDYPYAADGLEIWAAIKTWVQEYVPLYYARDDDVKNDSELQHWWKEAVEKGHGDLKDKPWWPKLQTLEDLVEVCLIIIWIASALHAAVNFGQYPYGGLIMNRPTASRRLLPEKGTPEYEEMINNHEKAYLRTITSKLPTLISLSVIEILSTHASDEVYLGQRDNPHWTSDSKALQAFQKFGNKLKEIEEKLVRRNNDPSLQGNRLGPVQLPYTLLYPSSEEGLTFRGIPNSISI
# Test: Lipoxygenase inhibitory activity assay
# Assay type: biochemical
# Conditions: not given
# Method: 10 µL of the compound of each concentration was mixed with 90 µL 5-LOX (Soybean lipoxygenase in assay buffer) in the specified wells of the 96-well plate. Two wells containing assay buffer and AA acted as blanks whereas four wells, each carrying enzyme and AA, were positive controls. 10 µL AA was added to each test well and the plate was shaken for 5 min. Chromogen (100 µL) was added to each well and the plate was again shaken for 5 min. The absorbance of each well at 490 nm was recorded on microplate scanning spectrophotometer. As per the protocol given with the assay kit, the 5-LOX inhibitory activity for each compound at each concentration was determined using the mean of the two values (duplicate experiments) with deviation <5%.
row,SMILES,IC50 [nM]
1,CN1C(=O)C(=Cc2cn(C[C@@H](O)Cn3c4ccccc4c(=O)c4ccccc43)c3ccccc23)C(=O)N(C)C1=O [(R)-3b],2000 ± 180
2,CN1C(=O)C(=Cc2cn(C[C@H](O)Cn3c4ccccc4c(=O)c4ccccc43)c3ccccc23)C(=O)N(C)C1=O [(S)-3b],90 ± 12
3,O=C1NC(=O)C(=Cc2cn(CCCCn3c4ccccc4c(=O)c4ccccc43)c3ccccc23)C(=O)N1 [Compound 4b],70 ± 22
4,O=C1NC(=O)C(=Cc2cn(C[C@@H](O)Cn3c4ccccc4c(=O)c4ccccc43)c3ccccc23)C(=O)N1 [(R)-3a],1000 ± 100

# Same assay, conditions: soybean lipoxygenase, duplicate; read-out: IC50 5-LOX
row,SMILES,IC50 [nM]
1,CC1=NN(c2cccc(Cl)c2)C(=O)C1=Cc1cn(C[C@H](O)Cn2c3ccccc3c(=O)c3ccccc32)c2ccccc12 [(S)-3e],700 ± 38
2,O=C1C(=Cc2cn(C[C@H](O)Cn3c4ccccc4c(=O)c4ccccc43)c3ccccc23)c2ccccc2N1c1c(Cl)cccc1Cl [(S)-3d],600 ± 39
3,CC1=NN(c2cccc(Cl)c2)C(=O)C1=Cc1cn(CCCCn2c3ccccc3c(=O)c3ccccc32)c2ccccc12 [Compound 4f],100 ± 70
4,O=C1Nc2ccccc2C1=Cc1cn(C[C@@H](O)Cn2c3ccccc3c(=O)c3ccccc32)c2ccccc12 [(R)-3c],600 ± 42
5,CC1=NN(c2cccc(Cl)c2)C(=O)C1=Cc1cn(C[C@@H](O)Cn2c3ccccc3c(=O)c3ccccc32)c2ccccc12 [(R)-3e],300 ± 130
6,O=C1C(=Cc2cn(C[C@@H](O)Cn3c4ccccc4c(=O)c4ccccc43)c3ccccc23)c2ccccc2N1c1c(Cl)cccc1Cl [(R)-3d],100 ± 60
7,CC1=NN(c2cccc(Cl)c2)C(=O)C1=Cc1cn(CCCn2c3ccccc3c(=O)c3ccccc32)c2ccccc12 [Compound 4e],400 ± 15
8,O=C1Nc2ccccc2C1=Cc1cn(CCCCn2c3ccccc3c(=O)c3ccccc32)c2ccccc12 [Compound 4d],200 ± 90

# Molecular target: T3, COX-2 (Homo sapiens, UniProt P35354)
# T3 sequence (P35354 18-604): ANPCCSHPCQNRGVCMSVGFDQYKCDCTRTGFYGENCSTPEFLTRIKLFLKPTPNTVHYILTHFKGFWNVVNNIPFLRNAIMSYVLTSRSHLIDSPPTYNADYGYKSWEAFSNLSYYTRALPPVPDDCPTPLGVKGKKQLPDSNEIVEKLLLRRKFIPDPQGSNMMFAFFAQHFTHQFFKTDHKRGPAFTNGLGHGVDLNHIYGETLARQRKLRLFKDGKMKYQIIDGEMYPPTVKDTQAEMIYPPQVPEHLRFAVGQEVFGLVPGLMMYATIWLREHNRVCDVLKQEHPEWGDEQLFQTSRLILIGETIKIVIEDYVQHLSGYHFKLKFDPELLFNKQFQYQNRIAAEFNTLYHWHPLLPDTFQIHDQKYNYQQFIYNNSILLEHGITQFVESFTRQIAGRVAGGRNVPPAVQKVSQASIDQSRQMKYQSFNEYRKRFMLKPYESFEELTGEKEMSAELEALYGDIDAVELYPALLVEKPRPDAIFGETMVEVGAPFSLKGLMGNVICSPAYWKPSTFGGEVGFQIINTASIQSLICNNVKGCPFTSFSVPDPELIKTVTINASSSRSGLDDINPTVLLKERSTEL
# Test: COX-2 enzyme immunoassay (Cayman inhibitor screening kit)
# Assay type: biochemical
# Parameters: purchased Cayman Chemical Co. 560131
# Conditions: SI = IC50 (COX-1)/ IC50 (COX-2)
# Method: as §1, §2
row,SMILES,Selectivity index
1,CN1C(=O)C(=Cc2cn(C[C@@H](O)Cn3c4ccccc4c(=O)c4ccccc43)c3ccccc23)C(=O)N(C)C1=O [(R)-3b],10
2,O=C1C(=Cc2cn(C[C@H](O)Cn3c4ccccc4c(=O)c4ccccc43)c3ccccc23)c2ccccc2N1c1c(Cl)cccc1Cl [(S)-3d],10
3,O=C1Nc2ccccc2C1=Cc1cn(C[C@@H](O)Cn2c3ccccc3c(=O)c3ccccc32)c2ccccc12 [(R)-3c],0.1
4,CC1=NN(c2cccc(Cl)c2)C(=O)C1=Cc1cn(CCCn2c3ccccc3c(=O)c3ccccc32)c2ccccc12 [Compound 4e],>1.11
5,O=C1Nc2ccccc2C1=Cc1cn(CCCCn2c3ccccc3c(=O)c3ccccc32)c2ccccc12 [Compound 4d],1.33

# Same assay, conditions: enzyme immunoassay, average of three experiments
row,SMILES,IC50 [nM]
1,CN1C(=O)C(=Cc2cn(C[C@@H](O)Cn3c4ccccc4c(=O)c4ccccc43)c3ccccc23)C(=O)N(C)C1=O [(R)-3b],100 ± 70
2,CN1C(=O)C(=Cc2cn(C[C@H](O)Cn3c4ccccc4c(=O)c4ccccc43)c3ccccc23)C(=O)N(C)C1=O [(S)-3b],300 ± 180
3,O=C1NC(=O)C(=Cc2cn(CCCCn3c4ccccc4c(=O)c4ccccc43)c3ccccc23)C(=O)N1 [Compound 4b],8000 ± 420
4,O=C1C(=Cc2cn(C[C@H](O)Cn3c4ccccc4c(=O)c4ccccc43)c3ccccc23)c2ccccc2N1c1c(Cl)cccc1Cl [(S)-3d],6000 ± 500
5,CC1=NN(c2cccc(Cl)c2)C(=O)C1=Cc1cn(CCCCn2c3ccccc3c(=O)c3ccccc32)c2ccccc12 [Compound 4f],40000 ± 3800
6,O=C1Nc2ccccc2C1=Cc1cn(C[C@@H](O)Cn2c3ccccc3c(=O)c3ccccc32)c2ccccc12 [(R)-3c],80000 ± 7000
7,CC1=NN(c2cccc(Cl)c2)C(=O)C1=Cc1cn(CCCn2c3ccccc3c(=O)c3ccccc32)c2ccccc12 [Compound 4e],9000 ± 550
8,O=C1Nc2ccccc2C1=Cc1cn(CCCCn2c3ccccc3c(=O)c3ccccc32)c2ccccc12 [Compound 4d],3000 ± 220
